Reference: US5665739A, “Substituted benzoylguanidines, process and their preparation, their use as pharmaceutical or diagnostic, and pharmaceutical containing them” (priority 1992, dated 1997)

What was measured:
Na^+ /H^+ exchanger = target: T1, Na^+ /H^+ exchanger (Oryctolagus cuniculus, UniProt P23791); test: Inhibition of the Na+/H+ exchanger of rabbit erythrocytes; format: cell-based; conditions: amiloride-sensitive Na+ influx, pH 7.4, 37° C.
T1 construct: endogenous in cells; host or cells: rabbit erythrocytes (blood of cholesterol-fed White New Zealand rabbits)
T1 sequence (P23791 whole entry): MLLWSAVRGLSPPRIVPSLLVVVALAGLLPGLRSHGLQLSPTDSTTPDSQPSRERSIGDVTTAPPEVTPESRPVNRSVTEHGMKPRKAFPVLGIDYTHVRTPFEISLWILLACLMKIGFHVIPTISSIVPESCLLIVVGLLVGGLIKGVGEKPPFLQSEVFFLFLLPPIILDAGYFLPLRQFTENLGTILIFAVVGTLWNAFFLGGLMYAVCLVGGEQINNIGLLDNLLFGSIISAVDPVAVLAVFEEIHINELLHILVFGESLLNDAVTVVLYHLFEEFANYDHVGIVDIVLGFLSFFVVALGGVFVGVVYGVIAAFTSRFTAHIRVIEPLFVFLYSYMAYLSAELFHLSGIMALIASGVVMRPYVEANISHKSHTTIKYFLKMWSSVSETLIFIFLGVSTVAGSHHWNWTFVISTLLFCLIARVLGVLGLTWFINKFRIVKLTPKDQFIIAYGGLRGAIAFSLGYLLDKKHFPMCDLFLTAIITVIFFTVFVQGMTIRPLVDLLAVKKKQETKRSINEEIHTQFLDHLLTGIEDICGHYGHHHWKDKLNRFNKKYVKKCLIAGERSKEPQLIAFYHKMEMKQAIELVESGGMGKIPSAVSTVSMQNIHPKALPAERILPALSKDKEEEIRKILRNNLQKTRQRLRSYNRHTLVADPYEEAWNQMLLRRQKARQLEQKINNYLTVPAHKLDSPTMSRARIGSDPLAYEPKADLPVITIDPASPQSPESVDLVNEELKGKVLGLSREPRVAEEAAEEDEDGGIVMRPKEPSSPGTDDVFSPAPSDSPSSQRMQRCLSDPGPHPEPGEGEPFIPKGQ
Description: Inhibition of the Na^+ /H^+ exchanger of rabbit erythrocytes
White New Zealand rabbits (Ivanovas) were given a standard diet containing 2% of cholesterol for six weeks so as to activate the Na^+ /H^+ exchange in order to be able to determine the Na^+ influx into the erythrocytes via Na^+ /H^+ exchange by means of flame photometry. The blood was sampled from the auricular artery and made incoagulable by addition of 25 IE of potassium heparin. Part of each sample was used for a repeated hematocrit measurement by centrifuging. 100 μl aliquots were used for measuring the initial Na^+ content of the erythrocytes.
To determine the amiloride-sensitive sodium influx, 100 μl of each blood sample were incubated in in each case 5 ml of a hyperosmolaric salt/sucrose medium (mmol/l: 140 NaCl, 3 KCl, 150 sucrose, 0.1 ouabain, 20 tris-hydroxymethylaminomethane) at pH 7.4 and 37° C. […] The intracellular sodium content was determined by flame photometry.
The Na^+ net influx was calculated from the difference between the initial sodium values and the sodium content of the erythrocytes after incubation. The sodium influx which can be inhibited by amiloride was determined from the difference of the sodium content of the erythrocytes after incubation with and without amiloride 3×10^-4 mol/l. […]

[1] = system: artificially induced ventricular fibrillation; conditions: rats' hearts; Eur. Heart J. 9 (suppl. 1): 167 (1988); cited from earlier work
[2] = in vivo; cited from earlier work

IC50 (Na^+ /H^+ exchanger) | SMILES | suppression of artificially induced ventricular fibrillation [1] | hypotensive and saluretic side effects [2]
0.03 µM | NC(N)=NC(=O)c1ccc(Oc2cccnc2)c(C(F)(F)F)c1 [Example 16, 4-(3-Pyridyloxy)-3-trifluoromethylbenzoylguanidine] | – | –
– | CCN(c1nc(N)c(C(=O)N=C(N)N)nc1Cl)C(C)C [ethylisopropylamiloride, Ethylisopropylamiloride] | even more potent than amiloride itself | –
– | NC(N)=NC(=O)c1nc(Cl)c(N)nc1N [amiloride, Amiloride] | suppressed completely | accompanied by a hypotensive and saluretic activity
0.04 µM | NC(N)=NC(=O)c1ccc(Oc2ccc3ncccc3c2)c(C(F)(F)F)c1 [Example 17, 4-(6-Quinolinoxy)-3-trifluoromethylbenzoylguanidine] | – | –
